Measured values reported in patent US8268961B2, “Antibacterial peptides and analogues thereof” (Universita Degli Studi di Siena, priority 2004, dated 2012).
Like-named read-outs stand apart in the source and are kept apart here. Positions of bridges follow the written chain, without caps; N, C: chain ends. Chains are numbered I, II in the order given. No end group written: not given here.

Key:
[1] = system: Escherichia coli W99FI0077; format: cell-based; conditions: W99FI0077
Excerpt: (§1) MIC is defined as the lowest concentration, in an antibiotic dilution range, that inhibits visible bacterial growth. The importance of MIC sensitivity test is based on the principle that in vitro sensitivity provides a predictive indication of the in vivo efficacy of the antibiotic therapy. Values are expressed as molar concentration and compared to MIC values obtained with commercially available antibiotics such as amikacin, ceftriaxone and levofloxacin (Table 3).
(§2) Reference strains (Escherichia coli ATCC 25922, Pseudomonas aeruginosa ATCC 27853, Staphylococus aureus ATCC 25923 and Chryseobacterium meningosepticum CCUG 4310) and several recent clinical isolates (including multidrug-resistant ones) of various species (Table 2) were used for conventional susceptibility testing experiments. Minimum Inhibitory Concentration (MIC) was determined by a standard microdilution assay as recommended by the National Commitee for Clinical Laboratory Standards (NCCLS) using cation-supplemented Mueller-Hinton (MH) broth (Oxoid Ltd. Basingstoke, UK) and a bacterial inoculum of 5×10^4 CFU per well, in a final volume of 100 μl. Results were recorded by visual inspection after 24 h of incubation at 37° C.

[2] = system: Klebsiella pneumoniae W99FI0057; format: cell-based; conditions: W99FI0057
Excerpt: as §1, §2

[3] = system: Pseudomonas aeruginosa 885149; format: cell-based; conditions: 885149
Excerpt: as §1, §2

[4] = system: Pseudomonas aeruginosa 891; format: cell-based; conditions: 891
Excerpt: as §1, §2

[5] = system: Pseudomonas aeruginosa ATCC27853; format: cell-based; conditions: ATCC27853
Excerpt: as §1, §2

[6] = system: Staphylococcus aureus ATCC 25923; format: cell-based
Excerpt: as §1, §2

[7] = system: Staphylococus aureus MIU-68A; format: cell-based, Staphylococcus aureus; conditions: Staphylococus aureus MIU-68A, meticillin-susceptible
Excerpt: as §1, §2

E. coli strain TG1 = assay: Test of antibacterial activity (colony growth inhibition) on E. coli strain TG1; format: cell-based
Protocol: The antimicrobic activity of the peptides in linear form (L1, L4, L5, L6) and in MAP form (M1, M4, M5, M6) was assayed on the TG1 strain of E. coli. The peptides were incubated at various concentrations (2-1-0.5-0.25-0.12 mg/ml) with cells of E. coli (OD600=0.2) for about 1 hour at 37° C. Subsequently, the cells were plated on agar at dilution such to allow counting of individual colonies. The antimicrobic activity of the synthesised peptide L 1 and M1 is shown FIG. 1 and is compared to a non correlated MAP peptide (MNC) used as negative control.
In one example, the tetrabranched MAP peptides with the amino acid sequence: QAKIRVRLSA [SEQ ID NO: 2], KIRVRLSA [SEQ ID NO: 3], QKKIRVRLSA [SEQ ID NO: 4] are used individually in a bacterial colony growth inhibition test. The test is conducted by incubating different concentrations of MAP peptides with E. coli (strain TG1) and plating bacterial cells on agar at a dilution such to allow for individual colonies counting. The following day, the number of colonies grown after treatment with the three MAP peptides is compared.
Antimicrobic tests were conducted incubating for 75 min at 37° C., 25 μL of E. coli at the OD600 of 0.2 with 25 μl of MAP peptide dissolved in PBS at the various concentrations. The different incubations were further diluted 1:1000 in 2×TY medium and 100 μl were plated on solid 2×TY medium. The plates were left overnight at 30° C. and the individual grown colonies were counted and compared with a control, not treated with MAP peptide.

E. coli ATCC 25922 = assay: Minimal bactericidal concentration (MBC); format: cell-based
Protocol: as §2
(§3) The MBC was determined as recommended by the National Committee for Clinical Laboratory Standards (NCCLS) on strains of E. coli ATCC 25922 and P. aeruginosa ATCC 27853.

P. aeruginosa ATCC 27853 = assay: Minimal bactericidal concentration (MBC); format: cell-based
Protocol: as §2, §3

[8] = system: murine macrophage cells J774 A.1; assay: Cytotoxicity test by MTT; format: cell-based, mouse
Protocol: The cytotoxicity of antibacterial MAP peptides was evaluated on different eukaryotic cell lines by a colorimetric assay (MTT). This assay measures the cells' ability to convert a soluble tetrazolium salt into an insoluble precipitate: formazan. The cytotoxicity of M1 was evaluated on murine macrophagic cells (J774 A.1), murine myeloma cells (SPO) and Chinese hamster ovary epithelium cells (CHO K1). As shown FIG. 4, even at high concentrations (1 mg/ml) M1 cytotoxicity on CHO K1 cells and on SPO cells is low (percent survival is 80-90%).
For cytotoxicity tests, different cell lines were used: murine myeloma cells SPO, hamster ovary epithelium cells CHO K 1, murine macrophage cells J774 A.1 and human keratinocytes HaCaT. The cells were plated in medium in RPMI 1640 (SPO and CHO K 1) and DMEM (J774 A.1 and HaCaT) with antibiotics and bovine foetal serum at 10%, in 96-well plates at the concentration of 6×10^4 (SPO, CHO K1 and J774 A.1) and 3×10^4 (HaCaT). Peptides, previously filtered with a 0.2 μm filter disk (Whatman), were added at various concentrations to the different cell lines and left in incubation over night at 37° C. Cell viability was determined adding the MTT tetrazolium salt at the concentration of 0.5 mg/ml and incubating for 90 min. The cells were solubilised with a solution at pH 4.5 containing SDS 10% and dimethylformamide 45% and read at the dual wavelength of 595/650 nm with a plate reader.

[9] = system: Pichia pastoris yeast strain X33; assay: Effect on Pichia pastoris yeast colonies; format: cell-based
Protocol: To a volume of 50 μl of culture of Pichia pastoris grown 24 hour at 30° C. in YPD (Yeast Extract/Peptone/Dextrose) medium, 50 μl of MAP peptides (2 mg/ml) were added and left in incubation 150 min at 37° C. Subsequently, 50 μl of each incubation were plated on YPD solid medium and it was allowed to grow for 48 hours at 30° C. The number of colonies grown was compared with a control, where the yeast was not treated with the MAP.

[10] = Stability to plasmatic protease (HPLC); format: in vitro ADME, human
Protocol: Since the use of peptides as therapeutic agents is severely limited by their in vivo half-life, the stability to human serum protease of the linear peptide L1 and of the MAP peptides M1, M4, M5 and M6 was evaluated. The peptides were incubated at the concentration of 10 mM with plasma and with human serum for 2 and 24 hours; the samples were subsequently analysed in HPLC on column C18 (see materials and methods) to evaluate the presence of linear and MAP peptide not digested by the protease.
The various peptides in MAP form and the linear peptide (L1) were dissolved in H2O at the concentration of 10 mM and incubated with 10 μl of plasma and human serum for 2 and 24 hours at 37° C. To each sample were added 150 μl of methanol to block the proteolytic reaction; each sample was then centrifuged at 13,000 rpm for 2 min and to the supernatant were added 0.75 ml of 0.1% trifluoroacetic acid. The samples were analysed in reverse phase HPLC on a Vydac C18 semi-preparative column using a 30 min gradient of buffer B from 20% to 95% (buffer A: 0.1% trifluoroacetic acid/water; buffer B: 0.1% trifluoroacetic acid/methanol), to evaluate the presence of linear and MAP peptide after the proteolytic treatment.

I: QAKIRVRLSAKKA-OH / II: QAKIRVRLSAK / III: QAKIRVRLSA / IV: QAKIRVRLSA (amide I:11-IV:C, I:12-II:C, II:11-III:C) [M4]
MIC (Molarity) [1]: 3.2 µM
MIC (Molarity) [2]: 13 µM
MIC (Molarity) [3]: 13 µM
MIC (Molarity) [4]: 13 µM
MIC (Molarity) [5]: 6.4 µM
MIC (Molarity) ([6]; ATCC 25923): 1.3e-05 M
MIC (Molarity) ([6]; Staphylococcus aureus ATCC 25923, reference strain, listed as M32 = M4): >1.2e-05 M
MIC (Molarity) ([6]; Staphylococcus aureus ATCC 25923, reference strain, listed as QAKIRVRLSA): ~10^−5 M
MIC (Molarity) [7]: >26 µM
Concentration down to which TG1 E. coli colony growth is prevented (E. coli strain TG1; E. coli TG1, MAP form): less effective
Antibacterial activity on E. coli TG1 colony growth (E. coli strain TG1; E. coli TG1, colony counting vs control without peptide): good antibacterial activity
MBC (minimal concentration able to kill 99.9% of the inoculum) compared with MIC (E. coli ATCC 25922): equal to the calculated values of MIC
MBC (minimal concentration able to kill 99.9% of the inoculum) compared with MIC (E. coli ATCC 25922; listed as QAKIRVRLSA): equal to the corresponding MIC values
MBC (minimal concentration able to kill 99.9% of the inoculum) compared with MIC (P. aeruginosa ATCC 27853): equal to the calculated values of MIC
MBC (minimal concentration able to kill 99.9% of the inoculum) compared with MIC (P. aeruginosa ATCC 27853; listed as QAKIRVRLSA): equal to the corresponding MIC values
Concentration at and over which a drop in cell viability was evident (MTT) [8]: ≥ 250 µg/mL
Vitality of J774 A.1 cells as the concentration of MAP peptides increases (MTT) [8]: decreases
Number of yeast colonies vs negative control [9]: did not differ from the negative control
Resistance to plasmatic protease: Plasma 2 h [10]: +
Resistance to plasmatic protease: Plasma 24 h [10]: +
